From patent US9458161B1, “TSPO ligands for cancer imaging and treatment” (Vanderbilt University, priority 2011, dated 2016)
Like-named read-outs stand apart in the source and are kept apart here.

Experiments:
TSPO [1] = target: T1, TSPO (Homo sapiens, UniProt P30536); settings: cited from earlier work
TSPO [2] = target: T1, TSPO; parameters: host or cells: glioma patients (Junck et al; Pappata et al.); settings: cited from earlier work
[3] = HPLC radiometabolite analysis of plasma after [18F]DPA-714; format: in vivo, rat; settings: mean ± SD
Method: Briefly, arterial blood (200 μL) was collected at 2, 12, 30, 60, and 90 min. Following centrifugation, plasma was extracted with acetonitrile:water (340 μL, 7:1, v/v). The mixture was centrifuged and the supernatant used for reversed phase HPLC analysis using 0.1 M aqueous ammonium acetate (NH4)OAc (pH 10) and acetonitrile (30:70; v/v) at 1 mL/min on a C18 Dynamax 250×4.6 mm (Varian) column. Radiochromatographic data were recorded and collected using a radioisotope detector (Bioscan), decay-corrected to time zero of each radiochromatogram, and smoothed using a locally weighted scatter plot smoothing method. The plasma time-activity curve was corrected according to the fraction of unchanged radioligand.

TSPO [4] = target: TSPO (Rattus norvegicus, UniProt P16257); settings: for K1/k2: 3-compartment, 4-parameter model; for K1/k2 / k3 / VT: mean ± S.E.; for K1/k2 / k3: N=3; for VT: N=4
Method: In this Example Glioma-bearing rats were imaged with [^18F]PBR06 in a microPET system. Dynamic acquisitions were acquired simultaneously upon injection of 70-100 MBq/0.2 mL [^18F]PBR06. Over the course of scanning, arterial blood was collected to derive the input function, with HPLC radiometabolite analysis performed on selected samples for arterial input function correction. Compartmental modeling of the PET data was performed using the corrected arterial input function. Specific tumor cell binding of PBR06 was evaluated by radioligand displacement of [^3H]PK 11195 with PBR06 in vitro and by displacement of [^18F]PBR06 with excess PBR06 in vivo. Immediately following imaging, tumor tissue and adjacent healthy brain were harvested for assay of TSPO protein levels by western blotting and immunohistochemistry.
PET/CT imaging was performed within 24 h of MR imaging in rats with confirmed tumors. Tumor-bearing rats were administered ˜70-100 MBq/0.2 mL [^18F]PBR06 via a jugular catheter while in a microPET Focus 220 (Siemens Preclinical Solutions, Knoxville, Tenn., USA). Dynamic images (90 min) were collected, followed by CT (microCAT II, Siemens Preclinical Solutions) for attenuation correction. For displacement studies, cold PBR06 (10 mg/kg) was injected via jugular catheter 30 min after radiotracer administration.
The dynamic PET acquisition was divided into twelve, five-second frames for the first minute, followed by 89 sixty-second frames for the duration of the scan. Data from all possible lines of response (LOR) were saved in the list mode raw data format. The raw data was then binned into 3D sinograms with a span of 3 and ring difference of 47. The images were reconstructed into transaxial slices (128×128×95) with voxel sizes of 0.095×0.095×0.08 cm^3, after applying scatter and attenuation corrections, using an iterative ordered subsets expectation maximization (OS-EM 2D) algorithm with 16 subsets and 4 iterations. Attenuation correction was accomplished by generating an attenuation map (sinogram) from the CT image. The CT image was first co-registered with the microPET image, segmented into air, soft tissue, and bone, and then projected into sinograms with a span of 47 and ring difference of 23.
Immediately following administration of [^18F]PBR06, arterial blood samples (50 μL) were collected at 10 s intervals during the first minute of scanning, followed by collection at 90 s and 2, 8, 12, 20, 30, 45, 60, 75, and 90 min. Plasma radioactivity was measured by first centrifuging blood samples (50 μL) at 14,000 rpm for 5 min in a microcentrifuge. Next, plasma (15 μL) was removed and measured in a NaI well counter (Capintec, Ramsey, N.J., USA).
Time-activity curves (TACs) were generated by manually segmenting three-dimensional volumes of interest over tumor and contralateral brain using ASIPro (Siemens Preclinical Solutions), avoiding areas of central necrosis if present. The arterial input function (AIF) was computed from plasma sampling during imaging and corrected for metabolism of the parent ligand. A 3-compartment, 4-rate constant kinetic model was used to characterize [^18F]PBR06 pharmacokinetics as previously described. Using the COMKAT software package, model parameters were estimated for constants for influx (K1) and efflux (k2) rates of radioligand diffusion between plasma and tissue compartments, and exchange between specific (k3) and non-specific binding (k4) compartments. Modeling was carried out for whole brain (excluding tumor) and tumor, individually, by fitting TACs of each region.
To evaluate the in vivo TSPO specificity of [^18F]PBR06, we carried out displacement studies in C6-bearing rats using the cold analog, PBR06.

[5] = HPLC radiometabolite analysis of plasma after [18F]PBR06; format: in vivo, rat
Method: Blood samples (200 μL) were collected (2, 25, 45 min) for radiometabolite analysis. Following centrifugation, plasma was extracted with acetonitrile:water (340 μL, 7.5:1, v/v). The mixture was centrifuged and the supernatant used for HPLC analysis. Radioanalysis was conducted as is known in the art. Radiochromatographic data were recorded and collected using a radioisotope detector (Bioscan, Washington, D.C., USA), decay-corrected to time zero of each radiochromatogram, and smoothed using a locally weighted scatter plot smoothing (LOWESS) method. The plasma time-activity curve (TAC) was corrected with the fraction of unchanged radioligand.
Arterial blood samples were collected to assay [^18F]PBR06 radiometabolites for correction of the AIF. FIG. 12 illustrates a typical activity corrected reversed-phase HPLC trace of a blood sample collected two minutes following injection of [^18F]PBR06. At this time point we noted the presence of both ^18F^− (retention time 2.8 min) and the parent ligand (10.1 min) in a respective ratio of ˜1:3.

[6] = at 45 minutes, after infusion of PBR06 at 30 minutes

T1 sequence (P30536 whole entry): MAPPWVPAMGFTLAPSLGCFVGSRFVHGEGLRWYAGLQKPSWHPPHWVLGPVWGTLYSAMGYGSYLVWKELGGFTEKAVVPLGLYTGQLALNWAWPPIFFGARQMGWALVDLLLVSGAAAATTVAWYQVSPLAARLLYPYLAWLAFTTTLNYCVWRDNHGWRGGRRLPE

## CCC(C)N(C)C(=O)c1cc2ccccc2c(-c2ccccc2Cl)n1 (stereo not shown) [PK 11195]
TSPO [1]
  in vitro affinity (in words): in vitro affinity in the low nanomolar range

## CN1C(=O)CN=C(c2ccc(Cl)cc2)c2cc(Cl)ccc21 [Ro5-4864]
TSPO [1]
  in vitro affinity (in words): in vitro affinity in the low nanomolar range

## CC[C@@H](C)N([11CH3])C(=O)c1cc2ccccc2c(-c2ccccc2Cl)n1 [[^11C]PK 11195]
TSPO [2]; glioma patient (Pappata et al.)
  displaceable fraction of tracer with nonradioactive ligand: less than 30%
TSPO [2]; human gliomas (Junck et al.)
  patients with significantly elevated uptake in gliomas vs contralateral normal brain: 8/10
TSPO [2]; human gliomas, in 3/10 patients (Junck et al.)
  tumor/gray matter ratio: ~2

## [11CH3]N1C(=O)CN=C(c2ccc(Cl)cc2)c2cc(Cl)ccc21 [[^11C]Ro5-4864]
TSPO [2]; human gliomas, PET (Junck et al.)
  radioactivity in tumor tissue vs normal brain (in words): failed to demonstrate higher levels of radioactivity in tumor tissue than in normal brain

## CCN(CC)C(=O)Cc1c(-c2ccc(OCC[18F])cc2)nn2c(C)cc(C)nc12 [[^18F]DPA-714]
[3]; P.I. time 2 (N=7)
  % 18F- in plasma: 2 ± 3.3%
  % Metabolite (hydrophilic radiometabolite) in plasma: 3 ± 3.7%
[3]; P.I. time 12 (N=7)
  % 18F- in plasma: 13 ± 6.7%
  % Metabolite (hydrophilic radiometabolite) in plasma: 19 ± 5.8%
  % [18F]DPA-714 (parent) in plasma: 68 ± 7.4%
[3]; P.I. time 30 (N=7)
  % 18F- in plasma: 37 ± 5.4%
  % Metabolite (hydrophilic radiometabolite) in plasma: 19 ± 8.8%
  % [18F]DPA-714 (parent) in plasma: 44 ± 8.9%
[3]; P.I. time 60 (N=7)
  % 18F- in plasma: 50 ± 15.0%
  % Metabolite (hydrophilic radiometabolite) in plasma: 23 ± 7.3%
  % [18F]DPA-714 (parent) in plasma: 27 ± 6.2%
[3]; P.I. time 90 (N=5)
  % 18F- in plasma: 64 ± 12.1%
  % Metabolite (hydrophilic radiometabolite) in plasma: 14 ± 3.8%
  % [18F]DPA-714 (parent) in plasma: 22 ± 17.8%

## COc1ccc(OC)c(CN(C(=O)C[18F])c2ccccc2Oc2ccccc2)c1 [[^18F]PBR06]
TSPO [4]; C6 glioma-bearing rats
  tracer distribution tumor vs contralateral brain (in words): preferentially accumulate in tumors with modest uptake in contralateral brain
TSPO [4]; PBR06 10 mg/kg i.v. 30 min after tracer
  tumor activity after PBR06 infusion, % of maximum/peak tumor uptake: approximately 25%
TSPO [4]; brain
  K1/k2: 6.164 ± 2.049 mL/g
  k3: 0.0714 ± 0.0261 min⁻¹
  VT: 13.07 ± 3.901 mL/g
TSPO [4]; brain, mean, N=3 (S.E. in next line)
  k4: 0.00945 min⁻¹
TSPO [4]; infusion of PBR06 10 mg/kg 30 min after tracer, tumor
  displaceable [18F]PBR06 binding: approximately 75%
TSPO [4]; last 20 minutes of the PET scan
  total radioactivity in tumor relative to normal brain: approximately three- to four-fold higher than normal brain
TSPO [4]; tumor
  K1/k2: 5.947 ± 1.982 mL/g
  k3: 0.3870 ± 0.1592 min⁻¹
  VT: 63.90 ± 3.400 mL/g
[5]; at 2 minutes after injection
  free 18F− in plasma: 25%
  parent ligand [18F]PBR06 in plasma: 75%
[5]; at 30 minutes
  free 18F− in plasma: 62%
  parent ligand [18F]PBR06 in plasma: 38%
[5]; [6]
  18F− in plasma: 43%
  fraction of [18F]PBR06 in plasma: 57%
